Measurements published in publication PMC5400251, “Effect of quinoline based 1,2,3-triazole and its structural analogues on growth and virulence attributes of Candida albicans” (PLoS ONE, 2017).
Read-outs that look alike come from different tables or passages of the source.

What was measured:
[1] = test system: ergosterol biosynthesis; assay: Ergosterol estimation assay
[2] = target: T1, plasma membrane H+ ATPase (Candida albicans, UniProt P28877); assay: Proton extrusion measurement (H+ efflux); type: cell-based, C. albicans D27 (FLC-susceptible)
T1 construct: endogenous in cells; host or cells: C. albicans ATCC 90028; clinical isolates C. albicans D27 (FLC-susceptible) and D15.9 (FLC-resistant); mid-log phase whole cells
T1 sequence (P28877 whole entry): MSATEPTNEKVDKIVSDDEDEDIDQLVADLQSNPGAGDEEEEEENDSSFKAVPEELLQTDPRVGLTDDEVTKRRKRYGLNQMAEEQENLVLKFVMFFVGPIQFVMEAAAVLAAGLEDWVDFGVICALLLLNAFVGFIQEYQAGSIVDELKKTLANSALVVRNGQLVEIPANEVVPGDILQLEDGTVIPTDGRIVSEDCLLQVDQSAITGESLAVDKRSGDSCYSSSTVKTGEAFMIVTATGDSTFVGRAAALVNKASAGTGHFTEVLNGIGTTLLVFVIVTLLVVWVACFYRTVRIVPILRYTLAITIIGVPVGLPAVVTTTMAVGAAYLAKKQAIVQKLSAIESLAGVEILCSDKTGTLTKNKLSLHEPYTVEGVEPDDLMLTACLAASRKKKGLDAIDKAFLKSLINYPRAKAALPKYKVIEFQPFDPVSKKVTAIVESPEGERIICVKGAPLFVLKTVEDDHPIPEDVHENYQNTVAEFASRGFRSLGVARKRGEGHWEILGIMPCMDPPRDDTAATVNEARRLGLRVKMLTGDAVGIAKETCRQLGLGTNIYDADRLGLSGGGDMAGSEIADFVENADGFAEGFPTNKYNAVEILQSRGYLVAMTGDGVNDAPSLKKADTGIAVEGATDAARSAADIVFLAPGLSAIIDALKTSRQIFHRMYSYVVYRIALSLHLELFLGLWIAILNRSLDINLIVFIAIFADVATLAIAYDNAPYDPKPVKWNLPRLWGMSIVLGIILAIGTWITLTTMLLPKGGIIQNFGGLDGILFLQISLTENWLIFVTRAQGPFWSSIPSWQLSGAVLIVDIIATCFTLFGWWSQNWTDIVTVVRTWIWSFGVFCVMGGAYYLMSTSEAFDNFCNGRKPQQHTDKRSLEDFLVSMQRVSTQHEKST
Method: (§1) The proton pumping activity of C. albicans was determined by monitoring acidification of external medium by measuring pH as describe earlier. In brief, the mid-log phase cells were harvested from SD medium by centrifugation at 3000 rpm for 15 min which is followed by three washings with phosphate buffer saline (PBS). A solution containing 0.1 M KCl and 0.1 mM CaCl2 in distilled water was prepared. Compounds 3a and 3b at the concentrations of 50 and 100 μg/mL were separately added in this solution. […] Initial pH was adjusted to 7.0 using 0.01 M HCl/NaOH. Approximately 0.2 g of cells were suspended in each set of solution. Suspension was kept in a double-jacketed glass container with constant stirring. Again, the pH of suspension was maintained as 7.0 for 1 min by using 0.01 N NaOH. The rate of H^+ extrusion was then monitored and calculated from the volume of 0.01 N NaOH consumed per min per mg weight of cells. Glucose has been reported as the stimulator of proton extrusion pump. Therefore above experiment was also repeated in the presence of 5 mM of glucose.

[3] = test system: C. albicans ATCC 90028; assay: Transmission electron microscopic analysis of morphology; type: cell-based; settings: MIC, 1 h exposure
Method: The morphology of C. albicans ATCC 90028 was analyzed using TEM following the standard protocol. […] Cells were then washed thrice with phosphate buffer solution to remove the residual medium and fixed overnight in 2.5% glutaraldehyde in phosphate/magnesium buffer (40 mM K2HPO4/KH2PO4, pH 6.5–0.5 mM MgCl2). Cells were washed twice for 15 min in 0.1 M sodium phosphate buffer (pH 6.0) and post-fixed for 2 h in 2% osmium tetroxide. Cells were again washed twice for 15 min in distilled water and then en bloc stained with 1% uranyl acetate (aqueous) for 30 min. After two further washes, cells were dehydrated in 95% and 100% ethanol. Cells were then exposed to propylene oxide for 2×10 min and infiltrated for 1 h in 1:1 propylene/epoxy embedding material (Epon) mixture and then overnight in fresh Epon. After polymerization for 48 h at 60°C, ultrathin sections were cut using a microtome (LeicaEM UC6) and transferred to a copper grid. Samples were stained with uranyl acetate (saturated solution of uranyl acetate in 50% alcohol) followed by lead citrate. Samples were washed three times in Milli-Q (MQ) water and dried by touching Whatman filter paper. Sections were examined with a FEI Tecnai G^2 TF20 transmission electron microscope at 200 KV.

[4] = test system: C. albicans ATCC 90028, C. albicans D27 (FLC-susceptible) and C. albicans D15.9 (FLC-resistant); assay: Time kill curve study, three strains; type: cell-based; settings: for Fungicidal or fungistatic nature: time kill curves, at 2MIC
Method: Time-kill curves were used for testing the fungicidal or fungistatic nature of the lead inhibitors 3a and 3b. The experimental procedure was performed according to the method reported by Wang et al.. C. albicans ATCC 90028, C. albicans D27 (FLC-susceptible) and C. albicans D15.9 (FLC-resistant) strains were used as test organisms. Fluconazole was used as a positive control. Freshly prepared sterile YEPD medium was inoculated by fresh culture (approx. 2×10^3 cells) of test organisms in different conical flasks. The cells were exposed to the test compounds at 2MIC, MIC and MIC/2 values, separately. All the conical flasks having different sets of test compounds and concentrations were incubated at 37°C and 160 rpm. At predetermined time points (0, 4, 12, 24, and 48 h after incubation with agitation at 37°C), a 100-μL aliquot was removed from every solution and appropriately diluted in sterile water. A 100-μl aliquot from each dilution was spread over the YEPD agar plate. Colony counts were determined after incubation at 37°C for 24 h. All the time-kill curve experiments were conducted in duplicate and mean colony count data (log10 CFU/mL) were plotted as a function of time for each strain.

[5] = Hemolytic assay; type: cell-based; settings: human, human red blood cells (erythrocyte suspension), 37°C, read-out: Hemolysis of hRBCs
Method: Human blood from a healthy individual was collected in tubes containing EDTA as anti-coagulant. The erythrocytes were harvested by centrifugation for 10 min at 2000 rpm and 20°C, washed three times in PBS. To the pellet, PBS was added to yield a 10% (v/v) erythrocytes/PBS suspension. The 10% suspension was then diluted 1:10 in PBS. From each suspension, 100 μL was added in triplicate to 100 μL of a different dilution series of test compounds in the same buffer in micro centrifuge tubes. […] The tubes were incubated for 1 h at 37°C and then centrifuged for 10 min at 2000 rpm and 20°C. From the supernatant, 150 μL was transferred to a flat-bottomed microtiter plate (Tarson), and the absorbance was measured spectrophotometrically at 450 nm. The hemolysis percentage was calculated by following equation: %Hemolysis=[(A450oftestcompoundtreatedsample−A450ofbuffertreatedsample)÷(A450of1%TritonX−100treatedsample−A450ofbuffertreatedsample)]×100

[6] = target: T1, plasma membrane H+ ATPase; assay: Measurement of intracellular pH (pHi); type: cell-based, C. albicans D27 (FLC-susceptible); settings: 100 μg/mL; untreated 6.6
Method: In yeast cells, plasma membrane H^+-ATPase helps to maintain internal pH between 6.0 and 7.5. Intracellular pH (pHi) was measured as reported earlier by Manzoor et al.. Mid-log phase cells were harvested from SD medium and washed thrice with PBS. Subsequently, cells (0.1 g) were suspended in 5 mL solution of 0.1 M KCl, and 0.1 mM CaCl2 in distilled water. Compounds 3a and 3b were added to the suspension at a desired concentration of 100 μg/mL. […] Initial pH of the suspension was adjusted to 7.0 in each case and incubated for 30 min at 37°C with constant stirring. After incubation, the pH of suspension was again adjusted to 7.0 followed by the addition of nystatin (20 μM) and incubation at 37°C for 1 h. The change in pH of the suspension was monitored on a pH meter with constant stirring. The value of external pH at which nystatin permeabilization induced no further shift was taken as an estimate of pHi.

[7] = target: T1, plasma membrane H+ ATPase; assay: Proton extrusion measurement (H+ efflux); type: cell-based, C. albicans ATCC 90028
Method: as §1

[8] = 50 μg/mL in presence of glucose (5 mM)
[9] = 100 μg/mL in presence of glucose (5 mM)
[10] = in the presence of glucose (5 mM), 100 μg/mL, read-out: Inhibition of H+ extrusion rate
[11] = read-out: Inhibition of H+ extrusion
[12] = 100 μg/mL, no glucose, read-out: Inhibition of H+ extrusion

| Structure (SMILES) | Mean decrease in total ergosterol content ([1]; at MIC/4, 16 h) | Range of relative H+ efflux rate [2, 8] | Range of relative H+ efflux rate ([2]; 50 μg/mL, no glucose) | Range of relative H+ efflux rate [2, 9] | Range of relative H+ efflux rate ([2]; 100 μg/mL, no glucose) | inhibition at 100 µg/mL [2, 10] | inhibition at 100 µg/mL [2, 11] | Cell morphology by TEM [3] | Fungicidal or fungistatic nature [4] | hemolysis at 1 h, 500 μg/mL [5] | Intracellular pH (pHi) [6] | Range of relative H+ efflux rate [7, 8] | Range of relative H+ efflux rate ([7]; 50 μg/mL, no glucose) | Range of relative H+ efflux rate [7, 9] | Range of relative H+ efflux rate ([7]; 100 μg/mL, no glucose) | inhibition at 100 µg/mL [7, 12] | inhibition at 100 µg/mL [7, 10] | further results |
| --- | --- | --- | --- | --- | --- | --- | --- | --- | --- | --- | --- | --- | --- | --- | --- | --- | --- | --- |
| c1ccc(Cn2cc(COc3cccc4cccnc34)nn2)cc1 [Compound 3a] | 30% | 21.60 ± 1.0 ×10^−6 mol min^−1 mg cells^−1 | 20.00 ± 1.0 ×10^−6 mol min^−1 mg cells^−1 | 19.30 ± 0.9 ×10^−6 mol min^−1 mg cells^−1 | 16.60 ± 0.8 ×10^−6 mol min^−1 mg cells^−1 | 52% | 45% | several deformations | fungicidal | 4.76% | 5.2 | 33.40 ± 1.6 ×10^−6 mol min^−1 mg cells^−1 | 19.60 ± 0.9 ×10^−6 mol min^−1 mg cells^−1 | 26.60 ± 1.3 ×10^−6 mol min^−1 mg cells^−1 | 11.00 ± 0.5 ×10^−6 mol min^−1 mg cells^−1 | 70% | 52% | Mean decrease in total ergosterol content ([1]; above MIC/2, 16 h): 100%; Change in CFU/mL ([4]; 2MIC, after 48 h, all three test strains): significant decrease in CFU/mL |
| Clc1ccc(OCc2cn(Cc3ccccc3)nn2)c2ncccc12 [Compound 3b, 8-((1-Benzyl-1H-1,2,3-triazol-4-yl)methoxy)-5-chloroquinoline] | 23% | 22.30 ± 1.1 ×10^−6 mol min^−1 mg cells^−1 | 17.60 ± 0.8 ×10^−6 mol min^−1 mg cells^−1 | 19.30 ± 0.9 ×10^−6 mol min^−1 mg cells^−1 | 16.00 ± 0.8 ×10^−6 mol min^−1 mg cells^−1 | 52% | 65% | several deformations | fungistatic | 26.8% | 5.1 | 23.30 ± 1.1 ×10^−6 mol min^−1 mg cells^−1 | 23.40 ± 1.1 ×10^−6 mol min^−1 mg cells^−1 | 20.00 ± 1.0 ×10^−6 mol min^−1 mg cells^−1 | 19.30 ± 0.9 ×10^−6 mol min^−1 mg cells^−1 | 47% | 64% | Decrease in total ergosterol content ([1]; at MIC, 16 h): 100%; Decrease in total ergosterol content ([1]; at MIC/2, 16 h): 98%; Change in CFU/mL with time interval ([4]; dose dependent): only slight increase in CFU/mL |
